Source: ChEMBL document CHEMBL1147550, “Capped dipeptide phenethylamide inhibitors of the HCV NS3 protease” (Bioorg Med Chem Lett, 2004)

Target: Genome polyprotein (Hepatitis C virus genotype 1a (isolate 1) (HCV), UniProt P26664)
Experiment: Inhibition of Hepatitis C virus NS3 protease in vitro.

Genome polyprotein, sequence (P26664 1027-1657 limits assumed): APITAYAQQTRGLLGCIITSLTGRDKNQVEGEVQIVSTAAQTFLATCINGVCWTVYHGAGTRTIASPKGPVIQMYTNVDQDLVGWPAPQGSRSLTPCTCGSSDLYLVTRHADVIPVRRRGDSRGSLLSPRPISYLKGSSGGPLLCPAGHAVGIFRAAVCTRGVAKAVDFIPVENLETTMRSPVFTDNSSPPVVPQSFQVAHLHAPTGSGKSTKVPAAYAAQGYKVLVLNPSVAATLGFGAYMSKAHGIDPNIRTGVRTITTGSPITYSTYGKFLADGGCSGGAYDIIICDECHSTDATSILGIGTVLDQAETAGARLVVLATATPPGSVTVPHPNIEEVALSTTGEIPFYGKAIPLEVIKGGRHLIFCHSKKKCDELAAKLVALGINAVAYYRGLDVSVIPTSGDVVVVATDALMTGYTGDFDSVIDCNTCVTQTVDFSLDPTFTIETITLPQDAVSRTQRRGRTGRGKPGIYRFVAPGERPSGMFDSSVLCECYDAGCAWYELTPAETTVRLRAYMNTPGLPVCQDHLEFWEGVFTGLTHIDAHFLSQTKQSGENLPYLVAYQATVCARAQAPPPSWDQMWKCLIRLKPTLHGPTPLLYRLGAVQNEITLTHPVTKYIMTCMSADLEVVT

Question: `O=C(O)c1cc(F)c(CCNC(=O)[C@H](CC(F)F)NC(=O)[C@@H]2C[C@@H](c3ccccc3)CN2C(=O)[C@@H](O)c2ccccc2)c(F)c1` was tested. Which IC50 did it give?
Answer: > 100 µM

Question: `O=C(O)c1cc(F)c(CCNC(=O)[C@H](CC(F)F)NC(=O)[C@@H]2C[C@@H](c3ccccc3)CN2C(=O)[C@H](O)C2CCCC2)c(F)c1` was tested. Which IC50 did it give?
Answer: 62 µM

Question: `O=C(O)c1cc(F)c(CCNC(=O)[C@H](CC(F)F)NC(=O)[C@@H]2C[C@@H](c3ccccc3)CN2C(=O)[C@@H](O)C2CCCCC2)c(F)c1` was tested. Which IC50 did it give?
Answer: 14 µM

Question: For `CC(C)[C@@H](O)C(=O)N1C[C@H](c2ccccc2)C[C@H]1C(=O)N[C@@H](CC(F)F)C(=O)NCCc1c(F)cc(C(=O)O)cc1F`, which IC50 is on record?
Answer: > 100 µM

Question: With `O=C(O)c1cc(F)c(CCNC(=O)[C@H](CC(F)F)NC(=O)[C@@H]2C[C@@H](c3ccccc3)CN2C(=O)[C@H](O)c2ccccc2)c(F)c1` as the compound, how does the IC50 read?
Answer: > 100 µM

Question: Which IC50 does the source give for `O=C(O)c1cc(F)c(CCNC(=O)[C@H](CC(F)F)NC(=O)[C@@H]2C[C@@H](c3ccccc3)CN2C(=O)C(O)C2CC2)c(F)c1` (stereo partly specified) here?
Answer: > 100 µM

Question: For `CC(C)COC(=O)N[C@H](C(=O)N1C[C@H](c2ccccc2)C[C@H]1C(=O)N[C@@H](CC(F)F)C(=O)NCCc1c(F)cc(C(=O)O)cc1F)C(C)C`, which IC50 is on record?
Answer: 0.9 µM

Question: For `CC(C)[C@H](O)C(=O)N1C[C@H](OC2CCCCC2)C[C@H]1C(=O)N[C@@H](CC(F)F)C(=O)NCCc1c(F)cc(C(=O)O)cc1F`, which IC50 is on record?
Answer: 32 µM

Question: `CC(C)[C@H](O)C(=O)N1C[C@H](OCc2ccccc2Cl)C[C@H]1C(=O)N[C@@H](CC(F)F)C(=O)NCCc1c(F)cc(C(=O)O)cc1F` was tested. Which IC50 did it give?
Answer: > 100 µM

Question: How did the IC50 turn out when `CC(C)[C@H](O)C(=O)N1C[C@H](c2ccccc2)C[C@H]1C(=O)N[C@@H](CC(F)F)C(=O)NCCc1c(F)cc(C(=O)O)cc1F` was run?
Answer: 18 µM

Question: With `CC(C)(C)[C@H](O)C(=O)N1C[C@H](c2ccccc2)C[C@H]1C(=O)N[C@@H](CC(F)F)C(=O)NCCc1c(F)cc(C(=O)O)cc1F` as the compound, how does the IC50 read?
Answer: 18 µM

Question: `CC(C)COC(=O)N[C@H](C(=O)N[C@@H](CC(C)C)C(=O)N[C@@H](CC(F)F)C(=O)NCCc1ccc(C(=O)O)cc1Cl)C(C)C` was tested. Which IC50 did it give?
Answer: 2.4 µM

Question: `CC(C)[C@H](O)C(=O)N1C[C@H](OCc2ccccc2)C[C@H]1C(=O)N[C@@H](CC(F)F)C(=O)NCCc1c(F)cc(C(=O)O)cc1F` was tested. Which IC50 did it give?
Answer: 27 µM

Question: For `O=C(O)c1cc(F)c(CCNC(=O)[C@H](CC(F)F)NC(=O)[C@@H]2C[C@@H](c3ccccc3)CN2C(=O)C(O)Cc2ccccc2)c(F)c1` (stereo partly specified), which IC50 is on record?
Answer: > 100 µM

Question: With `O=C(O)c1cc(F)c(CCNC(=O)[C@H](CC(F)F)NC(=O)[C@@H]2C[C@@H](c3ccccc3)CN2C(=O)[C@@H](O)C2CCCC2)c(F)c1` as the compound, how does the IC50 read?
Answer: 13 µM

Question: With `CC(C)C[C@H](NC(=O)[C@H](O)c1ccccc1)C(=O)N[C@@H](CC(F)F)C(=O)C(=O)O` as the compound, how does the IC50 read?
Answer: 3 µM

Question: For `CC(C)[C@H](O)C(=O)N1C[C@H](OCCCc2ccccc2)C[C@H]1C(=O)N[C@@H](CC(F)F)C(=O)NCCc1c(F)cc(C(=O)O)cc1F`, which IC50 is on record?
Answer: 11 µM

Question: `O=C(O)c1cc(F)c(CCNC(=O)[C@H](CC(F)F)NC(=O)[C@@H]2C[C@@H](c3ccccc3)CN2C(=O)CC2CCCC2)c(F)c1` was tested. Which IC50 did it give?
Answer: 34 µM

Question: How did the IC50 turn out when `CC(C)[C@H](O)C(=O)N1C[C@H](OCc2ccc(Br)cc2)C[C@H]1C(=O)N[C@@H](CC(F)F)C(=O)NCCc1c(F)cc(C(=O)O)cc1F` was run?
Answer: 12 µM

Question: With `CCC(CC)C(O)C(=O)N1C[C@H](c2ccccc2)C[C@H]1C(=O)N[C@@H](CC(F)F)C(=O)NCCc1c(F)cc(C(=O)O)cc1F` (stereo partly specified) as the compound, how does the IC50 read?
Answer: 50 µM

Question: With `CC(C)CC(=O)N1C[C@H](c2ccccc2)C[C@H]1C(=O)N[C@@H](CC(F)F)C(=O)NCCc1c(F)cc(C(=O)O)cc1F` as the compound, how does the IC50 read?
Answer: 58 µM
